This note sets out measurements from patent publication US4616028A, “Substituted 2,3,4,9-tetrahydro-1H-carbazole-1-acetic acid derivatives, compositions and use” (American Home Products Corporation, priority 1985, dated 1986).

Where a name gives a salt, the structure may show the parent alone.

The subject of one assay is Phenylquinone Writhing. Briefly: Phenylquinone-induced writhing in mice. Format: in vivo, mouse (male Swiss albino). The note with it: for ED50: ED50, mice (second results table); for Phenylquinone Writhing in Mice % Inhibition: p.o. As to the method: A further test used to determine the utility of the compounds of the present invention is designated: DRUG EFFECTS ON PHENYLQUINONE-INDUCED WRITHING IN MICE […]
The objective of this test is to determine the ability of test drugs to inhibit the nociceptive (pain) response of mice injected with a chemical irritant. This test is a primary screen for both peripheral and centrally acting analgesic drugs.
Male Swiss albino mice (15-25 g). The animals are fasted for 18 hours prior to use but have free access to water.
(§1) Drug Preparation and Administration:
Drugs are dissolved or suspended according to their solubility in 0.5% methyl cellulose or 0.5% Tween 80. They are administered by gastric lavage in a volume of 5 ml/kg. For primary screening all drugs are administered at the arbitrary dosage of 200 mg/kg, p.o. to a group of 10 mice.
A modification of the method of Siegmund at el., Proc. Soc. Exp. Biol. Med., 95, 729-731 (1957) is used. Groups of 5 mice are dosed with the test compound or vehicle control. Sixty minutes later the animals are injected i.p. with 0.3 ml/20 g body weight of a 0.02% solution of phenylquinone (PBQ; 2-phenyl-1,4-benzoquinone) and placed in individual observation boxes. The numer of writhing or abdominal squirming movements made by each mouse during the following 15 min. period is counted. The experiment is repeated with another group of 5 mice and the mean number of writhes per mouse for a group of 10 mice is calculated.
Drug treated and vehicle-treated control groups are compared and the percentage protection conferred by the drug is calculated:
Percentage protection=(c-t)100/c […]
where c=mean number of writhes in the control group where t=mean number of writhes in the test drug group

Another assay concerns inflamed paw. Briefly: Paw Pressure Test in the Rat (Freund's adjuvant inflamed paw, pain threshold). Format: in vivo, rat (male Sprague Dawley). The note with it: for ED50: po.
From the text: A still further test used to determine the utility of the compounds of the present invention is designated: PAW PRESSURE TEST IN THE RAT
The objective of this test is to assess the potency of peripheral and central acting drugs in inhibiting the reaction of rats to painful stimulation applied to an inflamed paw.
Male Sprague Dawley rats (180-200 g) are used. The animals are fasted overnight prior to drug administration.
as §1
Freund's Complete Adjuvant (FCA) is prepared by suspending 5 mg killed and dried mycobacterium butyricum (Difco) in 1 ml liquid paraffin. The test compounds are dissolved, or suspended with a few drops of Tween 80, in distilled water according to their solubility. They are administered by gastric gavage in a volume of 0.5 ml/100 g body weight to groups of 10 animals.
Ten rats are used per group. The method is essentially that described by Randall, et al., Arch. Int. Pharmacodyn. 111, 409 (1957) and the apparatus which is used to apply pressure to the paw (Analgesy-meter for the rat paw, Ugo Basile from Coulbourn Instruments) is a modification of that described by Gilfoil et al., J. Pharmacol, 142, 1 (1963). The instrument is basically a device which exerts a force that increases at a constant rate. The force is continuously monitored by a pointer moving along a linear scale and is measured in grams. The inflammatory reaction is induced in the left hind paw of rats by injecting 0.1 ml of Freund's adjuvant intradermally. The test compound or vehicle is administered 24 hours after the adjuvant. Prior to drug administration the rats are selected for their paw sensitivity. Rats responding to a pain threshold greater than 10 g applied to the inflamed paw are rejected. The pain threshold (vocalization) is determined 1 and 3 hours later in the inflamed paw and the normal paw of the treated and control groups. The higher of the 2 readings will be considered as representative of the drug effect on the pain threshold.
Presentation of results and Criteria for Activity:
Each animal which has a reading 1.5 times greater than the mean reading of the control-group will be considered as responsive to treatment. The number of animals showing an analgesic effect is then determined in each group.
The ED50 (dose which causes analgesia in 50% of the animals) using at least 3 doses is then determined, by the method described in Litchfield et al., J. Pharmacol. Exp. Ther., 96, 99 (1949).

The test system of the next assay is Adjuvant Edema. Briefly: Preventative Adjuvant Edema (Freund's complete adjuvant, hind paw volume). The note with it: for ED50: ED50, rat (second results table); for Preventative Adjuvant Edema % Inhibition: p.o., rat. The class given is in vivo, rat (male Sprague Dawley). As to the method: This test is a primary screen for anti-inflammatory drugs.
Male Sprague Dawley rats (180-200 g) are used. The animals have free access water but food is withdrawn 18 hours before testing.
Drug Preparations and Administration:
Freund's complete adjuvant is prepared by suspending 5 mg killed and dried Mycobacterium butyricum (Difco) in 1 ml liquid paraffin. The test compounds are dissolved in distilled water or suspended in distilled water with a few drops of Tween 80 according to their solubility. For primary screening all drugs are administrated by gastric lavage at the arbitrary dosage of 100 mg/kg, p.o. in a volume of 0.5 ml/100 g body weight to groups of 10 animals.
The method is essentially that described by Wax et al., J. Pharmacol. Exp. Ther., 192, 166-171 (1975). Groups of rats are injected intradermally in the left hind paw with 0.1 ml of Freund's complete adjuvant. The test compound or vehicle is administrated before the adjuvant, 24 hours and 48 hours after the adjuvant (day 0, 1 and 2). The injected hind paw volume is measured before the injection of adjuvant and 24 hrs. after the last drug administration (day 3) by means of a plethysmometer (Buxco Electronics Inc.). The difference between then hind paw volume on day 0 and day 3 represents the edema volume. Phenylbutazone (50 mg/kg, p.o.) is included as a positive control.
The mean edema volume (expressed as ml±SEM) is calculated for each group and the percentage protection conferred by the drug is calculated:
where c is the mean edema volume for the untreated controls and t is the mean edema volume for the drug treated group.

Setting [1] is: ED50, rat (second results table).
Where [2] appears, read: po, 72 h, rat (second results table), read-out: Preventative Adjuvant Edema percent inhibition.
The mark [3] stands for this setting: Mus musculus, po, mice (second results table), read-out: Phenylquinone Writhing in Mice percent inhibition.
Setting [4] is: dose which causes analgesia in 50% of the animals, rat.

In the case of `C=CC[C@@H]1CC[C@](CC)(CC(=O)O)c2[nH]c3c(Cl)ccc(C)c3c21` (relative stereo) [Example 34], the ED50 in the assay with Phenylquinone Writhing (Mus musculus, po) amounted to 7.6 mg/kg; with inflamed paw (setting [1]), 0.46 mg/kg; in the assay with Adjuvant Edema (po) it was 2.6 mg/kg.
In the case of `C=CC[C@@H]1CC[C@](CC)(CC(=O)O)c2[nH]c3c(Cl)c(Cl)ccc3c21` (relative stereo) [Example 32, cis-7,8-dichloro-1-ethyl-2,3,4,9-tetrahydro-4-(2-propenyl)-1H-carbazole-1-acetic acid], the ED50 worked out at 2 mg/kg with Phenylquinone Writhing (Mus musculus, po) and 0.08 mg/kg in the assay with inflamed paw (setting [1]). Besides, the inhibition in vivo at 25 mg/kg with Adjuvant Edema (setting [2]) amounted to 22%.
In the case of `C=CC[C@@H]1CC[C@](CC)(CC(=O)O)c2[nH]c3c(CC)cccc3c21` [Example 44, (1R-cis)-1,8-Diethyl-2,3,4,9-tetrahydro-4-(2-propenyl)-1H-carbazole-1-acetic Acid Benzenemethanamine Salt (1:1)], the inhibition in vivo at 25 mg/kg with Phenylquinone Writhing (setting [3]) is 5%; with Adjuvant Edema (setting [2]), 0%. For the same compound, the “Paw Pressure Test in the Rat percent inhibition” value was found to be 30% in the assay on inflamed paw (dose 1 mg/kg, rat) and 40% with inflamed paw (dose 5 mg/kg, rat).
Regarding `C=CC[C@@H]1CC[C@](CC)(CC(=O)O)c2[nH]c3c(CC)cccc3c21` (relative stereo) [Example 1, cis-1,8-Diethyl-2,3,4,9-tetrahydro-4-(2-propenyl)-1H-carbazole-1-acetic Acid], the “Phenylquinone Writhing in Mice % Inhibition” value with Phenylquinone Writhing (10.6 mg/kg) was 31%; in the assay with Phenylquinone Writhing (25 mg/kg), 60-80%; in the assay with Phenylquinone Writhing (200 mg/kg), 94%. The ED50 in the assay with inflamed paw (setting [4]) is 0.02 mg/kg. The “Preventative Adjuvant Edema % Inhibition” value in the assay with Adjuvant Edema (10 mg/kg) was 31%; in the assay with Adjuvant Edema (25 mg/kg), 44%; with Adjuvant Edema (50 mg/kg) it was 38%.
For the compound `C=CC[C@H]1CC[C@@](CC)(CC(=O)O)c2[nH]c3c(CC)cccc3c21` [Example 45, (1S-cis)-1,8-Diethyl-2,3,4,9-tetrahydro-4-(2-propenyl)-1H-carbazole-1-acetic Acid Benzenemethanamine Salt (1:1)], the values for the inhibition in vivo at 25 mg/kg in the assay with Phenylquinone Writhing (setting [3]) and in the assay with Adjuvant Edema (setting [2]) were 94% and 54%, respectively. For the same compound, in the assay with inflamed paw (setting [1]), the ED50 was found to be 0.011 mg/kg.
Consider `C=CC[C@@H]1CC[C@](CC)(CC(=O)O)c2[nH]c3ccccc3c21` (relative stereo) [Example 3, cis-1-Ethyl-2,3,4,9-tetrahydro-4-(2-propenyl)-1H-carbazole-1-acetic Acid], for which the “Phenylquinone Writhing in Mice % Inhibition” value with Phenylquinone Writhing (20 mg/kg) is 50%. In the assay with inflamed paw (setting [4]), the 50% effective dose (ED50) was determined as 0.01 mg/kg. In addition, the “Preventative Adjuvant Edema % Inhibition” value in the assay on Adjuvant Edema (10 mg/kg) is 50%.
For `C=CCC1CCC(C)(CC(=O)O)c2[nH]c3ccccc3c21` (stereo not drawn) [Example 12], the ED50 amounted to 18.7 mg/kg in the assay on Phenylquinone Writhing (Mus musculus, po); 1.9 mg/kg in the assay on inflamed paw (setting [1]); 6 mg/kg in the assay on Adjuvant Edema (po).
In the case of `C=CC[C@@H]1CC[C@](CC)(CC(=O)O)c2[nH]c3ccc(CC)cc3c21` (relative stereo) [Example 6], the ED50 was found to be 103 mg/kg with Phenylquinone Writhing (Mus musculus, po) and 0.01 mg/kg in the assay with inflamed paw (setting [1]). The inhibition in vivo at 10 mg/kg in the assay on Adjuvant Edema (po, 72 h, dose 10 mg/kg, rat (second results table), read-out: Preventative Adjuvant Edema percent inhibition) was 36%. Further, in the assay on Adjuvant Edema (setting [2]), the inhibition in vivo at 25 mg/kg was 21%.
In the case of `C=CC[C@H]1CC[C@](CC)(CC(=O)O)c2[nH]c3c(CC)cccc3c21` (relative stereo) [Example 4], the inhibition in vivo at 100 mg/kg in the assay with Phenylquinone Writhing (Mus musculus, po, dose 100 mg/kg, mice (second results table), read-out: Phenylquinone Writhing in Mice percent inhibition) is 9%. In addition, the ED50 in the assay on inflamed paw (setting [1]) worked out at 0.02 mg/kg. The inhibition in vivo at 25 mg/kg in the assay on Adjuvant Edema (setting [2]) was 35%.
Turning to `C=CC[C@@H]1CC[C@](CC)(CC(=O)O)c2[nH]c3c(C)c(Cl)ccc3c21` (relative stereo) [Example 30, cis-7-chloro-1-ethyl-2,3,4,9-tetrahydro-8-methyl-4-(2-propenyl)-1H-carbazole-1-acetic acid], the ED50 in the assay on Phenylquinone Writhing (Mus musculus, po) was determined as 2.6 mg/kg; in the assay on inflamed paw (setting [1]) it was 0.007 mg/kg; in the assay on Adjuvant Edema (po) it was 15 mg/kg.
Turning to `C=CC[C@@H]1CC[C@](CC)(CC(=O)O)c2[nH]c3ccc(CCCC)cc3c21` (relative stereo) [Example 8], the ED50 was 10.6 mg/kg in the assay on Phenylquinone Writhing (Mus musculus, po) and 0.2 mg/kg in the assay with inflamed paw (setting [1]). The inhibition in vivo at 5 mg/kg with Adjuvant Edema (po, 72 h, dose 5 mg/kg, rat (second results table), read-out: Preventative Adjuvant Edema percent inhibition) amounted to 56%.
On to `C=CC[C@@H]1CC[C@](CC)(CC(=O)O)c2[nH]c3c(C)ccc(C)c3c21` (relative stereo) [Example 31], for which the ED50 in the assay on Phenylquinone Writhing (Mus musculus, po) was determined as 2.3 mg/kg; in the assay with inflamed paw (setting [1]) it was 0.3 mg/kg. The inhibition in vivo at 25 mg/kg in the assay with Adjuvant Edema (setting [2]) was found to be 42%.
On to `C=CC[C@@H]1CC[C@](CC)(CC(=O)O)c2[nH]c3c(C)cccc3c21` (relative stereo) [Example 11, cis-1-ethyl-2,3,4,9-tetrahydro-8-methyl-4-(2-propenyl)-1H-carbazole-1-acetic acid], for which the ED50 in the assay on Phenylquinone Writhing (Mus musculus, po) was determined as 8.3 mg/kg; in the assay on inflamed paw (setting [1]) it was 0.33 mg/kg; in the assay on Adjuvant Edema (po), 8.5 mg/kg.
As to `C=CC[C@@H]1CC[C@](CC)(CC(=O)O)c2[nH]c3c(Br)ccc(C)c3c21` (relative stereo) [Example 33], the ED50 with Phenylquinone Writhing (Mus musculus, po) came to 4.5 mg/kg; in the assay on inflamed paw (setting [1]), 0.93 mg/kg. Further, the inhibition in vivo at 25 mg/kg in the assay with Adjuvant Edema (setting [2]) was 27%.
